Laboratory results reported in patent US20260234185A1, “ANTI-AGING COMPOSITION COMPRISING PEPTIDE COMPLEX AS ACTIVE INGREDIENT” (priority 2023, published 2026).
Where no end group is shown, it is not given here.

Experiments:
[1] = test system: sirtuin 1 (SIRT1); test: Western blot of SIRT1 protein expression in adipocytes; format: cell-based; details: differentiated 3T3-L1 adipocytes; 0.2, 2, 20 μg/mL; 1 hour; Western blot (FIGS. 1a, 1b)
Method: An experiment was performed to determine whether the peptide complex prepared in Preparation Example 1 using adipocytes increases the phosphorylation of AMP-activated protein kinase (AMPK), which is a longevity-related protein, and increases the expression levels of sirtuin 1 (SIRT1) and fibroblast growth factor 21 (FGF21) proteins in adipocytes.
When 3T3-L1 preadipocytes reached 80% confluence, they were seeded at 5×10^3 cells/well in a 96-well plate and used for the experiment. Two days after reaching confluence, the medium was replaced with a differentiation-inducing medium to induce the differentiation into adipocytes, and two days after the induction, the cells were cultured for 2 days in a medium containing 10% FBS and 10 μg/mL insulin, and then the medium was replaced with 10% FBS every 2 days until their differentiation into adipocytes. Once the differentiation was complete, the medium was replaced with a serum-free medium and cultured for 4 hours to induce starvation. The peptide complexes were treated at concentrations of 0.2 μg/mL, 2 μg/mL, and 20 μg/mL, incubated for 1 hour, dissolved by adding dissolution buffer thereto, and the proteins obtained by centrifugation at 4° C. and 12,000 rpm for 30 minutes were quantified using a BCA kit. […]

[2] = test system: AMPK; test: Western blot of AMPK phosphorylation in myocytes; format: cell-based, mouse; details: differentiated C2C12 myocytes; 0.2, 2, 20 μg/mL; 24 hours; Western blot (FIGS. 6a, 6b)
Method: An experiment was performed to determine whether the peptide complex increases the phosphorylation of AMPK and the expression of SIRT1 and FGF21 proteins in myocytes.
C2C12 cells, mouse-derived myoblasts, were cultured in DMEM medium containing 1% P/S and 2% BCS. When the cell confluency reached 70-80%, the cells were seeded in a 6-well culture plate. When the cell confluency in the 6-well culture plate reached 100%, the medium was replaced with differentiation medium (1% P/S, 2% horse serum), and thereafter, the differentiation medium (1% P/S, 2% horse serum) was replaced once every two days. Five days after the first replacement, the peptide complex was treated at concentrations of 0.2 μg/mL, 2 μg/mL, and 20 μg/mL and cultured for 24 hours. The group untreated with the peptide complex was used as the control. After dissolving by adding dissolution buffer thereto, the proteins obtained were centrifuged at 4° C. and 12,000 rpm for 30 minutes, and quantified using a BCA kit. The proteins were subjected to sodium dodecyl sulfate-polyacrylamide gel electrophoresis (SDS-PAGE) and then electrotransferred onto a membrane. The membrane with the proteins attached was blocked by treating it with 5% skim milk, and then the primary antibody was reacted overnight at 4° C. […]

## peptide complex: prepared by mixing equal amounts of the peptide of SEQ ID NO: 1 (LKTRN) and the peptide of SEQ ID NO: 2 (KGSATGWMA) (also: mixture of two peptides)
[1]
  expression level of SIRT1 protein: increased
[2]
  phosphorylation of AMPK: increased
